Results as given in patent US7629359B2, “Use of piperidine derivatives as dermo-decontracting agents” (L'Oreal, priority 2004, dated 2009).

Tested on: dermis equivalent model consisting of a matrix of collagen seeded with normal human fibroblasts
Assay: Dermo-decontracting effect on dermis equivalent model (spontaneous contraction of collagen gel)
Assay type: cell-based
Details: for activity as dermo-decontracting agent in the test of Example 1: dermis equivalent test presented in Example 1

| SMILES | activity as dermo-decontracting agent in the test of Example 1 | reduction of the contraction of the fibroblasts compared with the control (1 μM test compound, on average over the duration of the experiment (0, 4, 8 and 24 hours), experiment repeated three times) [%] |
| --- | --- | --- |
| CN1C(=O)CN=C(c2ccccc2)c2cc(Cl)ccc21 [diazepam] | not active |  |
| COc1ccc([C@@H]2Sc3ccccc3N(CCN(C)C)C(=O)[C@@H]2OC(C)=O)cc1 [diltiazem] | not active |  |
| O=C(O)/C=C\C(=O)O.c1ccc(CCCCN2CCC(c3ccccc3)CC2)cc1 [maleic acid salt of 4-phenyl-1-(4-phenylbutyl)piperidine] |  | 17 |
| CCOC(=O)C1=C(C)NC(C)=C(C(=O)OC)C1c1cccc([N+](=O)[O-])c1 (stereo not shown) [nitrendipine] | not active |  |
